Measured values taken from patent publication US8080668B2, “Thiazoles derivatives as AMPK activator” (Dr. Reddy's Laboratories Limited, priority 2005, dated 2011).

Assays:
AMPK [1] = assay: AMPK activation potential, cell based ELISA with p-AMPK specific antibody, L6 skeletal muscle cells; conditions: 10 μM compound, 24 hours, normalized to metformin at 2 mM = 100%
Description: (§1) The AMPK activation potential percentages in this specification are calculated with respect to the already known AMPK activator metformin. The percentages are obtained by normalizing the values obtained at concentrations in the range of 2 μM to 10 μM with that of metformin by considering the values obtained for metformin at 2 mM concentrations as 100%. However, the AMPK activation potential percentages can also be calculated with respect to other known AMPK activators also.
(§2) AMPK activation potential of the compounds of formula (I) was evaluated using a cell based ELISA approach. L6 muscle skeletal muscle and Hep G2 hepatoma liver cells were cultured for 48 hours prior to drug addition at various concentrations. Twenty four hours later, the cells were fixed and the ELISA plate developed following standard protocol using p-AMPK specific antibody.
(§3) Various cell lines such as HepG2 and L6 were revived from glycerol stocks (ATCC). The cells were maintained in a T 75 culture flask-containing medium (DMEM +10% fetal calf serum). On reaching a confluence of 70% to 80%, the cells were seeded in a 96 well plate at a density of 10×10^3 cells per well in DMEM +10% FCS medium. The plates were then incubated at 37° C. with 5% CO2 for 48 hours. Various concentrations of drugs were prepared in DMSO and diluted to required concentration with the medium and incubated at 37° C. with 5% CO2 for 24 hours. Cells were fixed with 4% formaldehyde in PBS for 30 minutes at 25-35° C. and washed three times with PBS containing 0.1% Triton X-100. Endogenous peroxidase was quenched with 0.6% H2O2 in PBS-T for 30 minutes and washed three times in PBS-T. The cells were then blocked with 10% FCS in PBS-T for 1hour. The cells were incubated for 8-12 hours with various concentrations of primary antibody in PBS-T containing 5% BSA at 4° C., followed by washing three times with PBS-T for 5 minutes and incubating with a secondary antibody (HRP conjugated 1:500 in PBS-T with 5% BSA for 1 hour at 25-35° C. The cells were washed three times with PBS-T for 5 minutes and twice with PBS and incubated with 100 μl TMB/H2O2 color developing solution for 15 minutes. The reaction was stopped with 50 μl of 1M H2SO4. The plate was then read at 460 nm using ELISA plate reader.
(§4) AMPK activation percentages for various compounds are given in the table below (AMPK activation potential percentages are obtained by normalizing the values obtained at 10 μM concentration with that of metformin by considering the values obtained for metformin at 2 mM concentrations as 100%).

AMPK [2] = assay: AMPK activation potential, cell based ELISA with p-AMPK specific antibody, Hep G2 hepatoma liver cells; conditions: 10 μM compound, 24 hours; normalized to metformin at 2 mM = 100%; HepG2 cells
Description: as §1, §2, §3, §4

Row | Structure (SMILES) | AMPK % activation (at 10 μM) L6 skeletal muscle cells (AMPK [1]) [%] | AMPK % activation (at 10 μM) HepG-2 hepatoma liver cells (AMPK [2]) [%] | melting point [°C]
1 | O=C(O)Cc1csc(Nc2ccc(OC(F)(F)F)cc2)n1 [Example 1-e, [2-(4-Trifluoromethoxy-phenylamino)-thiazol-4-yl]-acetic acid] | 94.09 | 100.29 | –
2 | O=C(O)Cc1csc(Nc2ccc(F)cc2)n1 [Example 1-a, [2-(4-Fluoro-phenylamino)-thiazol-4-yl]-acetic acid] | 81 | 97.9 | –
3 | O=C(O)c1csc(Nc2ccc(Cl)cc2)n1 [Example 2-a, 2-(4-Chloro-phenylamino)-thiazole-4-carboxylic acid] | 94.90 | 97.26 | –
4 | O=C(O)c1csc(Nc2ccc(-c3csc(-c4ccccc4)n3)cc2)n1 [Example 2-c, 2-[4-(2-Phenyl-thiazol-4-yl)-phenylamino]-thiazole-4-carboxylic acid] | 102.19 | 96.35 | 283 to 286
5 | O=C(O)Cc1csc(Nc2ccc(OCc3ccccc3)cc2)n1 [Example 1-f, [2-(4-Benzyloxy-phenylamino)-thiazol-4-yl]-acetic acid] | 88.04 | 87.76 | 116 to 118
6 | O=C(O)Cc1csc(Nc2ccc(O)cc2)n1 [Example 1-s, [2-(4-Hydroxy-phenylamino)-thiazol-4-yl]-acetic acid] | 92.35 | 86.08 | –
7 | O=C(O)Cc1csc(Nc2ccc(N3CCOCC3)cc2)n1 [Example 1-i, [2-(4-Morpholin-4-yl-phenylamino)-thiazol-4-yl]-acetic acid] | 109.09 | 69.71 | 198 to 199
8 | O=C(O)Cc1csc(Nc2ccc(Oc3ccc(Cl)cc3)cc2)n1 [Example 1-k, {2-[4-(4-Chloro-phenoxy)-phenylamino]-thiazol-4-yl}-acetic acid] | 96.19 | 97.56 | 192 to 193
9 | O=C(O)c1csc(Nc2ccc(-c3csc(-c4ccc(C(F)(F)F)cc4)n3)cc2)n1 [Example 2-d, 2-{4-[2-(4-Trifluoromethyl-phenyl)-thiazol-4-yl]-phenylamino}-thiazole-4-carboxylic acid] | 109.70 | 83.89 | –
10 | Cc1nc(-c2ccc(Nc3nc(CC(=O)O)cs3)cc2)cs1 [Example 1-n, {2-[4-(2-Methyl-thiazol-4-yl)-phenylamino]-thiazol-4-yl}-acetic acid] | 83.62 | 98.42 | 153 to 156
11 | O=C(O)Cc1csc(Nc2ccc(-c3csc(-c4ccc(C(F)(F)F)cc4)n3)cc2)n1 [Example 1-l, (2-{4-[2-(4-Trifluoromethyl-phenyl)-thiazol-4-yl]-phenylamino}-thiazol-4-yl)-acetic acid] | 104.37 | 85.27 | 171 to 174
12 | O=C(O)Cc1csc(Nc2ccc(-c3ccccc3)cc2)n1 [Example 1-o, [2-(Biphenyl-4-ylamino)-thiazol-4-yl]-acetic acid] | – | – | 158 to 159
13 | O=C(O)Cc1csc(Nc2ccc(-c3csc(-c4ccccc4)n3)cc2)n1 [Example 1-m, {2-[4-(2-Phenyl-thiazol-4-yl)-phenylamino]-thiazol-4-yl}-acetic acid] | – | – | 148 to 150
14 | O=C(O)Cc1csc(Nc2ccc(Cl)cc2)n1 [Example 1-b, [2-(4-Chloro-phenylamino)-thiazol-4-yl]-acetic acid] | 102.63 | 87.11 | –
15 | CCCCc1ccc(Nc2nc(CC(=O)O)cs2)cc1 [Example 1-p, [2-(4-Butyl-phenylamino)-thiazol-4-yl]-acetic acid] | 102.26 | 75.77 | –
16 | O=C(O)CCc1csc(Nc2ccc(C(F)(F)F)cc2)n1 [Example 3-e, 3-[2-(4-Trifluoromethyl-phenylamino)-thiazol-4-yl]-propionic acid] | 94.72 | 110.47 | –
17 | O=C(O)Cc1csc(Nc2ccc(Sc3ccc(Cl)cc3)cc2)n1 [Example 1-j, {2-[4-(4-Chloro-phenylsulfanyl)-phenylamino]-thiazol-4-yl}-acetic acid] | 97.09 | 97.56 | 191 to 192
18 | Cc1nc(-c2ccc(Nc3nc(C(=O)O)cs3)cc2)cs1 [Example 2-b, 2-[4-(2-Methyl-thiazol-4-yl)-phenylamino]-thiazole-4-carboxylic acid] | – | – | 290 to 292
19 | Cc1ccc(Nc2nc(CC(=O)O)cs2)cc1 [Example 1-d, (2-p-Tolylamino-thiazol-4-yl)-acetic acid] | 99.55 | 97.11 | –
